Experimental data reported in patent publication US12453708B2, “Aminonaphthoquinone compounds for treatment and/or prevention of fibrosis diseases” (CALGENT BIOTECHNOLOGY CO., LTD., priority 2015, dated 2025).

Tested on: BLM-induced lung fibrosis in mice
Assay: Bleomycin (BLM)-induced lung fibrosis mice model
Type: in vivo, C57BL/6JNarl mice
Conditions: for fibrosis score, Mean ± SEM: H&E histology day 39
Protocol: FIGS. 8 (A) and (B) show the effect of L056 effect on fibrosis score of BLM-induced lung fibrosis in mice. C57BL/6 mice (8 weeks) were treated with bleomycin (BLM, 0.05 U/50 μl) or PBS (50 μl) by endotracheal administration. […] On day 39, the mice were sacrificed and, the histologic analysis of lung tissue was performed by hematoxylin-eosin (H&E) staining (original magnification, x100). […] (A), Histology fibrosis score plot; (B), H&E staining plot.
FIG. 9 (A) to (D) show the inhibitory effects on pro-fibrogenic mediators, collagen, CTGF, fibronectin and […], respectively. (A), H&E staining plot for collagen; (B), H&E staining plot for CTGF; (C), H&E staining plot for fibronectin; (D), H&E staining plot for α-SMA.
C57BL/6JNarl mice (8 weeks) were treated with bleomycin (BLM, 0.05 U/50 μl) or PBS (50 μl) by endotracheal administration. […] On day 39, the mice were sacrificed, and the histologic analysis of lung tissue was performed by hematoxylin-eosin (H&E) staining (original magnification, x100).

[1] = BLM mice, 25 mg (mg/kg/day, q.d., oral, days 10 to 38)
[2] = BLM mice, 50 mg (mg/kg/day, q.d., oral, days 10 to 38)
[3] = BLM mice, 100 mg (mg/kg/day, q.d., oral, days 10 to 38)

SMILES: O=C(Nc1ccncc1)c1ccc(CNC2=C(Cl)C(=O)c3ccccc3C2=O)cc1 [Example L056, 4-(((3-chloro-1,4-dioxo-1,4-dihydronaphthalen-2-yl)amino)methyl)-N-(pyridin-4-yl)benzamide]
- Efficacy % (reduction of fibrosis score) [1]: 50.94%
- fibrosis score, Mean ± SEM [1]: 3.27 ± 0.03
- Efficacy % (reduction of fibrosis score) [2]: 83.90%
- fibrosis score, Mean ± SEM [2]: 2.03 ± 0.21
- Efficacy % (reduction of fibrosis score) [3]: 67.38%
- fibrosis score, Mean ± SEM [3]: 2.65 ± 0.17
- efficacy in the inhibition compared with PBS control (BLM mice, FIG. 8(B)): significantly higher than the PBS control
- pro-fibrogenic mediators expression (collagen, CTGF, fibronectin, α-SMA) in lung (bleomycin-induced mice lung fibrosis model, FIG. 9): inhibited
- inhibition of BLM-induced lung fibrosis (in words) (mice, 25, 50, 100 mg/kg/day oral, FIG. 8(A)): inhibits BLM-induced lung fibrosis in a dose-dependent manner
